≈ marks a conversion by molar mass, not a printed value. Calls of active or inactive are those of the source. No cut-off for these calls is given here.
What was measured:
Type in all cases: functional
Caenorhabditis elegans = experiment: Nematicidal activity against Caenorhabditis elegans assessed as immobility; conditions: read-out: LD50 (the source's name)
Bacillus subtilis [1] = experiment: Antibacterial activity against Bacillus subtilis MTCC 441 assessed as inhibition zones at 300 ug/disk at 37 degC for 24 hr; conditions: MTCC 441, 24 h, read-out: IZ
Staphylococcus aureus [2] = experiment: Antibacterial activity against Staphylococcus aureus MTCC 96 assessed as inhibition zones at 300 ug/disc at 37 degC for 24 hr; conditions: MTCC 96, 24 h, read-out: IZ
Candida albicans [3] = experiment: Antifungal activity against Candida albicans ATCC 10231 assessed as growth inhibition at 37 degC for 48 hr; conditions: ATCC 10231, 48 h
[4] = test system: Trichophyton mentagrophytes; experiment: Antifungal activity against Trichophyton mentagrophytes IFO 40996 assessed as growth inhibition at 300 ug/disc at 37 degC for 48 hr; conditions: for zone of inhibition at 300 µg/disc: IFO 40996, 48 h, read-out: IZ
[5] = test system: Lysinibacillus sphaericus; experiment: Antibacterial activity against Lysinibacillus sphaericus MTCC 11 assessed as inhibition zones at 300 ug/disk at 37 degC for 24 hr; conditions: MTCC 11, 24 h, read-out: IZ
Candida albicans [6] = experiment: Antifungal activity against Candida albicans ATCC 10231 assessed as growth inhibition at 300 ug/disk at 37 degC for 48 hr; conditions: for zone of inhibition at 300 µg/disc: ATCC 10231, 48 h, read-out: IZ
Aspergillus fumigatus [7] = experiment: Antifungal activity against Aspergillus fumigatus HIC 6094 assessed as growth inhibition at 37 degC for 48 hr; conditions: HIC 6094, 48 h
Klebsiella aerogenes [8] = experiment: Antibacterial activity against Enterobacter aerogenes MTCC 39 assessed as growth arrest at 37 degC for 24 hr; conditions: MTCC 39, 24 h
Pseudomonas aeruginosa [9] = experiment: Antibacterial activity against Pseudomonas aeruginosa MTCC 741 assessed as growth arrest at 37 degC for 24 hr; conditions: MTCC 741, 24 h
Bacillus subtilis [10] = experiment: Antibacterial activity against Bacillus subtilis MTCC 441 assessed as growth arrest at 37 degC for 24 hr; conditions: MTCC 441, 24 h
Pseudomonas aeruginosa [11] = experiment: Antibacterial activity against Pseudomonas aeruginosa MTCC 741 assessed as inhibition zones at 300 ug/disk at 37 degC for 24 hr; conditions: MTCC 741, 24 h, read-out: IZ
Klebsiella aerogenes [12] = experiment: Antibacterial activity against Enterobacter aerogenes MTCC 39 assessed as inhibition zones at 300 ug/disk at 37 degC for 24 hr; conditions: MTCC 39, 24 h, read-out: IZ
[13] = test system: Chromobacterium violaceum; experiment: Antibacterial activity against Chromobacterium violaceum MTCC 2656 assessed as inhibition zones at 300 ug/disk at 37 degC for 24 hr; conditions: MTCC 2656, 24 h, read-out: IZ
Trichophyton rubrum [14] = experiment: Antifungal activity against Trichophyton rubrum IFO 9185 assessed as growth inhibition at 37 degC for 48 hr; conditions: IFO 9185, 48 h
Aspergillus fumigatus [15] = experiment: Antifungal activity against Aspergillus fumigatus HIC 6094 assessed as growth inhibition at 300 ug/disc at 37 degC for 48 hr; conditions: for zone of inhibition at 300 µg/disc: HIC 6094, 48 h, read-out: IZ
Trichophyton rubrum [16] = experiment: Antifungal activity against Trichophyton rubrum IFO 9185 assessed as growth inhibition at 300 ug/disk at 37 degC for 48 hr; conditions: for zone of inhibition at 300 µg/disc: IFO 9185, 48 h, read-out: IZ
[17] = test system: Lysinibacillus sphaericus; experiment: Antibacterial activity against Lysinibacillus sphaericus MTCC 11 assessed as growth arrest at 37 degC for 24 hr; conditions: MTCC 11, 24 h
[18] = test system: Ditylenchus myceliophagus; experiment: Nematicidal activity against Ditylenchus myceliophagus assessed as immobility; conditions: read-out: LD50 (the source's name)
[19] = test system: Trichophyton mentagrophytes; experiment: Antifungal activity against Trichophyton mentagrophytes IFO 40996 assessed as growth inhibition at 37 degC for 48 hr; conditions: IFO 40996, 48 h
[20] = test system: Chromobacterium violaceum; experiment: Antibacterial activity against Chromobacterium violaceum MTCC 2656 assessed as growth arrest at 37 degC for 24 hr; conditions: MTCC 2656, 24 h
Staphylococcus aureus [21] = experiment: Antibacterial activity against Staphylococcus aureus MTCC 96 assessed as growth arrest at 37 degC for 24 hr; conditions: MTCC 96, 24 h

SMILES	LC50 (Caenorhabditis elegans)	zone of inhibition at 300 µg/disc (Bacillus subtilis [1])	zone of inhibition at 300 µg/disc (Staphylococcus aureus [2])	MBC (Candida albicans [3])	MIC (Candida albicans [3])	zone of inhibition at 300 µg/disc [5]	MBC (Aspergillus fumigatus [7])	MIC (Aspergillus fumigatus [7])	MBC (Klebsiella aerogenes [8])	MIC (Klebsiella aerogenes [8])	MBC (Pseudomonas aeruginosa [9])	MIC (Pseudomonas aeruginosa [9])	MBC (Bacillus subtilis [10])	MIC (Bacillus subtilis [10])	zone of inhibition at 300 µg/disc (Pseudomonas aeruginosa [11])	zone of inhibition at 300 µg/disc (Klebsiella aerogenes [12])	zone of inhibition at 300 µg/disc [13]	MBC (Trichophyton rubrum [14])	MIC (Trichophyton rubrum [14])	MBC [17]	also measured
COc1ccc(Cc2ccc(OC)c(C3SC4C(=NN(c5ccccc5)C4c4ccc(F)cc4)N3c3ccc([N+](=O)[O-])cc3)c2)cc1C1SC2C(=NN(c3ccccc3)C2c2ccc(F)cc2)N1c1ccc([N+](=O)[O-])cc1 (stereo not drawn)	620 µg/mL (≈ 582 µM)	21 mm	20 mm	25 µg/mL (≈ 23.5 µM)	12.5 µg/mL (≈ 11.7 µM)	22 mm	50 µg/mL (≈ 46.9 µM)	12.5 µg/mL (≈ 11.7 µM)	25 µg/mL (≈ 23.5 µM)	12.5 µg/mL (≈ 11.7 µM)	25 µg/mL (≈ 23.5 µM)	6.25 µg/mL (≈ 5.87 µM)	25 µg/mL (≈ 23.5 µM)	12.5 µg/mL (≈ 11.7 µM)	11 mm	24 mm	11 mm	25 µg/mL (≈ 23.5 µM)	6.25 µg/mL (≈ 5.87 µM)	12.5 µg/mL (≈ 11.7 µM)	zone of inhibition at 300 µg/disc [4]: 9 mm; zone of inhibition at 300 µg/disc (Candida albicans [6]): 8 mm; zone of inhibition at 300 µg/disc (Aspergillus fumigatus [15]): 11 mm; zone of inhibition at 300 µg/disc (Trichophyton rubrum [16]): 10 mm; MIC [17]: 6.25 µg/mL (≈ 5.87 µM); LC50 [18]: 800 µg/mL (≈ 751 µM); MBC [19]: 12.5 µg/mL (≈ 11.7 µM); MIC [19]: 12.5 µg/mL (≈ 11.7 µM); MBC [20]: 50 µg/mL (≈ 46.9 µM); MIC [20]: 25 µg/mL (≈ 23.5 µM); MBC (Staphylococcus aureus [21]): 25 µg/mL (≈ 23.5 µM); MIC (Staphylococcus aureus [21]): 6.25 µg/mL (≈ 5.87 µM)
COc1ccc(Cc2ccc(OC)c(C3SC4C(=NN(c5ccc(Cl)cc5)C4c4ccc(F)cc4)N3c3ccc([N+](=O)[O-])cc3)c2)cc1C1SC2C(=NN(c3ccc(Cl)cc3)C2c2ccc(F)cc2)N1c1ccc([N+](=O)[O-])cc1 (stereo not drawn)	350 µg/mL (≈ 309 µM)	21 mm	16 mm	25 µg/mL (≈ 22 µM)	25 µg/mL (≈ 22 µM)	16 mm	50 µg/mL (≈ 44.1 µM)	25 µg/mL (≈ 22 µM)	25 µg/mL (≈ 22 µM)	12.5 µg/mL (≈ 11 µM)	50 µg/mL (≈ 44.1 µM)	50 µg/mL (≈ 44.1 µM)	50 µg/mL (≈ 44.1 µM)	6.25 µg/mL (≈ 5.51 µM)	16 mm	20 mm	16 mm	50 µg/mL (≈ 44.1 µM)	25 µg/mL (≈ 22 µM)	50 µg/mL (≈ 44.1 µM)	inhibition zone (IZ) [4]: inactive; zone of inhibition at 300 µg/disc (Candida albicans [6]): 15 mm; inhibition zone (IZ) (Aspergillus fumigatus [15]): inactive; inhibition zone (IZ) (Trichophyton rubrum [16]): inactive; MIC [17]: 12.5 µg/mL (≈ 11 µM); LC50 [18]: 230 µg/mL (≈ 203 µM); MBC [19]: 12.5 µg/mL (≈ 11 µM); MIC [19]: 6.25 µg/mL (≈ 5.51 µM); MBC [20]: 50 µg/mL (≈ 44.1 µM); MIC [20]: 12.5 µg/mL (≈ 11 µM); MBC (Staphylococcus aureus [21]): 25 µg/mL (≈ 22 µM); MIC (Staphylococcus aureus [21]): 6.25 µg/mL (≈ 5.51 µM)
COc1ccc(Cc2ccc(OC)c(C3SC4C(=NN(Cc5ccccc5)C4c4ccc(F)cc4)N3c3ccc(C)cc3)c2)cc1C1SC2C(=NN(Cc3ccccc3)C2c2ccc(F)cc2)N1c1ccc(C)cc1 (stereo not drawn)	210 µg/mL (≈ 204 µM)	20 mm	24 mm	6.25 µg/mL (≈ 6.06 µM)	3.12 µg/mL (≈ 3.03 µM)	14 mm	25 µg/mL (≈ 24.2 µM)	25 µg/mL (≈ 24.2 µM)	50 µg/mL (≈ 48.5 µM)	12.5 µg/mL (≈ 12.1 µM)	25 µg/mL (≈ 24.2 µM)	12.5 µg/mL (≈ 12.1 µM)	12.5 µg/mL (≈ 12.1 µM)	6.25 µg/mL (≈ 6.06 µM)	14 mm	22 mm	17 mm	25 µg/mL (≈ 24.2 µM)	12.5 µg/mL (≈ 12.1 µM)	12.5 µg/mL (≈ 12.1 µM)	zone of inhibition at 300 µg/disc [4]: 16 mm; zone of inhibition at 300 µg/disc (Candida albicans [6]): 22 mm; zone of inhibition at 300 µg/disc (Aspergillus fumigatus [15]): 16 mm; zone of inhibition at 300 µg/disc (Trichophyton rubrum [16]): 15 mm; MIC [17]: 6.25 µg/mL (≈ 6.06 µM); LC50 [18]: 190 µg/mL (≈ 184 µM); MBC [19]: 25 µg/mL (≈ 24.2 µM); MIC [19]: 25 µg/mL (≈ 24.2 µM); MBC [20]: 12.5 µg/mL (≈ 12.1 µM); MIC [20]: 12.5 µg/mL (≈ 12.1 µM); MBC (Staphylococcus aureus [21]): 6.25 µg/mL (≈ 6.06 µM); MIC (Staphylococcus aureus [21]): 6.25 µg/mL (≈ 6.06 µM)
COc1ccc(Cc2ccc(OC)c(C3SC4C(=NN(C(C)C)C4c4ccc(F)cc4)N3c3ccc([N+](=O)[O-])cc3)c2)cc1C1SC2C(=NN(C(C)C)C2c2ccc(F)cc2)N1c1ccc([N+](=O)[O-])cc1 (stereo not drawn)	600 µg/mL (≈ 602 µM)	18 mm	23 mm	25 µg/mL (≈ 25.1 µM)	25 µg/mL (≈ 25.1 µM)	13 mm	50 µg/mL (≈ 50.1 µM)	25 µg/mL (≈ 25.1 µM)	25 µg/mL (≈ 25.1 µM)	12.5 µg/mL (≈ 12.5 µM)	25 µg/mL (≈ 25.1 µM)	25 µg/mL (≈ 25.1 µM)	25 µg/mL (≈ 25.1 µM)	25 µg/mL (≈ 25.1 µM)	10 mm	17 mm	15 mm	25 µg/mL (≈ 25.1 µM)	12.5 µg/mL (≈ 12.5 µM)	50 µg/mL (≈ 50.1 µM)	inhibition zone (IZ) [4]: inactive; inhibition zone (IZ) (Candida albicans [6]): inactive; inhibition zone (IZ) (Aspergillus fumigatus [15]): inactive; zone of inhibition at 300 µg/disc (Trichophyton rubrum [16]): 9 mm; MIC [17]: 50 µg/mL (≈ 50.1 µM); LC50 [18]: 510 µg/mL (≈ 511 µM); MBC [19]: 25 µg/mL (≈ 25.1 µM); MIC [19]: 12.5 µg/mL (≈ 12.5 µM); MBC [20]: 50 µg/mL (≈ 50.1 µM); MIC [20]: 25 µg/mL (≈ 25.1 µM); MBC (Staphylococcus aureus [21]): 50 µg/mL (≈ 50.1 µM); MIC (Staphylococcus aureus [21]): 25 µg/mL (≈ 25.1 µM)

Source: ChEMBL document CHEMBL3045223, “Synthesis, nematicidal and antimicrobial properties of Bis-[4-methoxy-3-[3-(4-fluorophenyl)-6-(4-methylphenyl)-2(aryl)-tetrahydro-2H-pyrazolo[3,4-d]thiazol-5-yl]phenyl]methanes” (2009)
